Consider two compounds from patent US20210195905A1, “NATURAL COMPLEX PRESERVATIVE AGENT FOR GRAIN OR GRAIN PRODUCT” (BST Inc., priority 2019, published 2021).

A short description of the assay: DPPH radical scavenging (antioxidant activity). The note with it: 0.2 mM DPPH, 30 minutes in the dark, absorbance 517 nm. The assay is classed as biochemical. (In general: DPPH is a stable violet radical that fades when it is reduced.)

As to `O=C1O[C@H]([C@@H](O)CO)C(O)=C1O` [L-ascorbic acid], the “concentration for 50% scavenging of radical (SC50)” value came to 49.95 µg/mL. `COc1ccc(O)c(C(C)(C)C)c1` [BHA, Butylated Hydroxy Anisole]: the “concentration for 50% scavenging of radical (SC50)” value was determined as 58.83 µg/mL.
